Reference: article PMC5608556, “Photo-affinity labelling and biochemical analyses identify the target of trypanocidal simplified natural product analogues” (PLoS Neglected Tropical Diseases, 2017)

Tested on: Vero
Experiment: Toxicity (EC50) in Vero cells
Assay type: cell-based
Conditions: Chlorocebus sabaeus, footnote b, read-out: EC50 values Mammal Vero
Source text: Fig 1 Labelling and detection of B-THP-T target(s). (A) Structures of chamuvarinin and simplified analogues thereof as probes used in this study and their respective toxicity in selected cell lines. Bi-functional compound 3 contains a diazirine (blue) to cross-link the compound to its target and an alkyne handle (red) to which an azide-containing reporter probe can be added. Mono-functional compound 2 contains the diazirine to cross-link to its target but lacks the alkyne handle and cannot be appended with an azide reporter probe. Lead B-THP-T, compound 1, lacks both diazirine and alkyne. The additional functional groups on compounds 2 and 3 are minor alterations, which have little effect on inhibitor potency. (B) Overview of the in vivo pulse-chase photo-affinity labelling procedure. B-THP-T were incubated with live PF T. brucei cells and trafficked to their targets. Following UV-irradiation, only compounds containing a diazirine (i.e. compounds 2 and 3) could cross-link with target proteins. The subsequent “click reaction” appended the conjugated B-THP-T with a reporter probe as long as an alkyne handle was present (i.e. on compound 3). Refer to the experimental section for details. (C) Detection of Cy5.5-tagged proteins following photo-affinity labelling. Proteins were separated by SDS-PAGE and conjugated Cy5.5 was detected at 700 nm. […]

For `C#CCNC(=O)CCC[C@H]1CC2(C[C@@H](Cn3cc([C@@H]4CCC[C@H](CCCCOCc5ccccc5)O4)nn3)O1)N=N2` [Compound 3], the EC50 was 21.3 ± 2 µM.
